Reference: patent publication US10226463B2, “Fluorouracil glycolate compound for the treatment of warts, molluscum contagiosum” (priority 2012, dated 2019)

Key:
[1] = stability of the formed compound at room temperature; type: physicochemical
From the text: (§1) Fluorouracil Glycolate is formed by a chemical reaction between fluorouracil and glycolic acid, in an acid-base reaction under the Lowry-Bronsted model in a typical acid-base reaction. The new unique compound when formed is stable at room temperature for approximately one year. The molecular weight of the new compound is 205.72. The magic wart cream formulation, a thick cream resembling peanut butter, has a consistency designed for easy application to the lesions with a toothpick. This is to eliminate any messy, troublesome dribbling as this was a problem encountered early and then overcome on a trial and error basis, resulting in the thicker consistency. By applying the magic wart cream to only the center of the wart, and not to the edges, it focuses the target of the high-sulfur containing, amino acid rich matrix of keratin to where the fluorouracil glycolate can pool. Then it forms a depot within the small socket of the lesion. This dictates the nature of the liberation absorption and distribution the drug delivery system.

[2] = systemic absorption after topical application to the lesion; type: in vivo; conditions: saturation of the lesion
From the text: as §1

For `O=C(O)CO.O=c1[nH]cc(F)c(=O)[nH]1` [Fluorouracil Glycolate], the “stable at room temperature (duration)” value [1] was “approximately one” and the systemic absorption [2] was “without observed systemic absorption”.
